For data set [1], the system named is stress ulcer formation. The data set can be described thus: WIS: Restraint and Water Immersion Stress-Induced Ulcer Inhibition Test. Format: in vivo, male Crj:SD or Slc:SD rats. The note with it: 100 mg/kg oral, 10 min before 7 h restraint and water immersion (21° C.), SD rats. As to the method: WIS: Restraint and Water Immersion Stress-Induced Ulcer Inhibition Test
The degree of inhibition of the stress ulcer formation is tested.
Male Crj:SD or Slc:SD rats (6 to 7-week-old) were fasted overnight, but allowed free access to water. Each group has 5 to 8 of these rats. The sample compound was dissolved or suspended in an aqueous solution of 0.3% sodium carboxymethylcellulose or 0.05% Tween 80 and then was orally administered (100 mg/10 ml/kg). To a control group, the vehicle was administered. 10 minutes later, the rats were placed in a stress cage and immersed to the level of xipfoid process in a water bath (21° C.) for 7 hours. At the end of the stress, the rats were sacrificed by inhalation of ether or carbon dioxide. Then, the stomach of each was removed, inflated by injecting 10 ml of 5% formalin neutral buffer solution, and immersed in 1% formalin neutral buffer solution for 30 minutes or more to be fixed. The stomach was incised along the greater curvature and then the length of each erosion in the glandular portion was determined under dissecting microscope. The sum of the length of erosions per stomach was defined as ulcer index (UI).
The effect obtained when 100 mg/kg of the sample compound had been administered was expressed as ulcer formation inhibitory rate (%) as follows:
ulcer formation inhibitory rate (%)=(1-(UI in sample group/UI in control

The nature of data set [2]: MTT: Cell Damaging and Protecting Effect Test. Format: cell-based, male Japanese White rabbit. The note with it: rabbit, gastric corpus mucosa cells, final concentration 10^-4 M, 37° C., smaller value is better, read-out: MTT: cell damaging rate. From the text:
MTT: Cell Damaging and Protecting Effect Test
It is confirmed that there is no toxicity in cell level. Those having a toxicity in cell level are inappropriate as an anti-ulcer drug.
A male Japanese White rabbit (2.5 to 3 kg) was anesthetized to death by Nembutal™ and, immediately thereafter, its stomach was removed. The greater curvature of the stomach was incised so as to remove the stomach contents therefrom. After the mucosal surface was washed with HBSS (Hanks' Balanced Salt Solution), the stomach in ice-cooled HBSS was transferred to a laboratory. […]
The sample compound was dissolved in DMSO so as to attain a concentration of 10^-2 M and then diluted with HBSS containing 2% of Ultrocer G™ so as to attain a final concentration of 10^-4 M. To each group, which 8 wells were used for, 10 μl of MTT reagent was added immediately after 100 μl of the medium in each well was exchanged for same volume of the resulting solution of the sample compound. […] Then, the absorbance (OD: 570 to 630) was measured by a microplate reader. […]
The cell damaging or cell protecting effect of the sample compound at the final concentration of 10^-4 M was expressed as cell damaging rate (%) as follows:
cell damaging rate (%)=(1-(absorbance in sample group/absorbance in control […]

Data set [3] deals with isolated gastric fundic gland (histamine-stimulated acid secretion). In words: CAP: Acid Secretion Inhibition Test In Vitro ([14C]-aminopyrine uptake). The class given is cell-based, male Japanese White rabbit. The note with it: Oryctolagus cuniculus, 40 min, final concentration 10^-5 M, histamine 10^-5 M, 37° C., read-out: CAP: acid secretion inhibitory rate. As to the method:
CAP: Acid Secretion Inhibition Test In Vitro
The acid secretion inhibitory activity in a cell level is studied. It can also be used for studying the mechanism of the effect. […]
ii-a) Preparation of isolated gastric fundus gland suspension
First, an isolated gastric fundic gland sample was prepared. Namely, a male Japanese White rabbit (2.5 to 3 kg) was anesthetized to death with Nembutal™ and then the abdomen was incised. Immediately thereafter, the stomach was removed and, after its pyloric and cardiac antrum were severed, incised along its greater curvature into two sheets. […]
Into 70 ml of the nutrient solution containing 1 mg/ml of collagenase, minced mucosal pieces were dispersed and intensely stirred in a conical flask with a stirrer at 37° C. for 40 to 60 minutes. During this period, 100% O2 was sprayed on the nutrient solution surface and the pH was appropriately measured such that it was immediately adjusted to pH 7.4, when the value was therebelow, with a base. […] The number of cells was counted under microscope and adjusted to 1.6×10^6 cells/ml. […]
Then, [^14 C]-aminopyrine uptake test was performed. […] The gland pellet was completely dried as the tube with its lid being opened was kept for one night in a drying oven at 80° C. and then the lid was closed and the weight was determined at room temperature. […]

As to `CC(C)Cc1cc(C(=O)NCCCOc2cccc(CN3CCCCC3)c2)ccc1OCc1ccc(F)cc1` [Example 1], the “WIS: ulcer formation inhibitory rate” value in data set [1] turned out to be 55%. For the same compound, in data set [2], the cytotoxicity at 4 h, 100 µM is -3%. Moreover, in data set [3], the inhibition at 10 µM worked out at 104%.
Take `CC(C)=CCC/C(C)=C/COc1ccc(C(=O)NCCCOc2cccc(CN3CCCCC3)c2)cc1` [Example 2]: the “WIS: ulcer formation inhibitory rate” value in data set [1] is listed as 62%. Further, the cytotoxicity at 4 h, 100 µM in data set [2] was 49%. In data set [3], the inhibition at 10 µM came to 102%.
